A word on the pIC50: it is the IC50 on a negative log10 scale, so that one unit is a factor of ten.

pIC50: −log10 of the molar value. Where a name gives a salt, the structure may show the parent alone.

T1 sequence (P35408 whole entry): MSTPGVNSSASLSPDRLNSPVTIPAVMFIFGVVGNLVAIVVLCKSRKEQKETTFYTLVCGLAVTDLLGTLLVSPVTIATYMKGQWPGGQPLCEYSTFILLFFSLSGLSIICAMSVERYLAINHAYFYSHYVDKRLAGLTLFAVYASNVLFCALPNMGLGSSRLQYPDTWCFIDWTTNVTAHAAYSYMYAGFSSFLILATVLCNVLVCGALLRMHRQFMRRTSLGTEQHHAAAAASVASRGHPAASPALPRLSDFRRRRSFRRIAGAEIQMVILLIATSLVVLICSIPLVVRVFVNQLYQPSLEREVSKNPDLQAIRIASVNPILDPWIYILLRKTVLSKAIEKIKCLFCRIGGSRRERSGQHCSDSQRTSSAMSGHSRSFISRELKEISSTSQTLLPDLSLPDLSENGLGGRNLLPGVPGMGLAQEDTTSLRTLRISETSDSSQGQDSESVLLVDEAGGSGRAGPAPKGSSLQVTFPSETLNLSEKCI

This assay has as its target T1, human EP4 (hEP4) receptor (Homo sapiens, UniProt P35408).
T1 construct: expressed in transfected cells; host or cells: HEK-293 T cells, transient co-transfection with polyethylenimine
The assay is described as follows: In vitro human EP4 functional antagonist activity using BRET biosensors (cAMP EPAC biosensor, TCS2510 stimulation). The note with it: antagonist activity vs EC60 TCS2510, hEP4 in HEK-293 T cells. The format is cell-based. The gist of the method:
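HEK-293T cells transiently co-transfected with hEP4 and EPAC cAMP BRET biosensor (luciferase/GFP), assayed 48 h later in HEPES-buffered saline after 1 h at 22 °C. After 5 min with compound, cells stimulated with EC60 TCS2510 and BRET read for 10 min; IC50 from 10-point, 4.5-log variable-slope fits, duplicate, two experiments.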
A general note: Bioluminescence resonance energy transfer reports proximity on the nanometre scale.
The compound `C[C@H](NC(=O)C1(c2cccc(OC3CCCCC3)c2)CCOCC1)c1ccc(C(=O)O)cc1` [Example 100, 4-[(1S)-1-[[4-[3-(Cyclohexoxy)phenyl]tetrahydropyran-4-carbonyl]amino]ethyl]benzoic acid] had a negative-log IC50 (pIC50) above 6.00.
For the compound `Cc1cccc(OCCNC2(C(=O)N[C@@H](C)c3ccc(C(=O)O)cc3)CCCCC2)c1` [Example 58, 4-[(1S)-1-[[1-[2-(3-Methylphenoxy)ethylamino]cyclohexanecarbonyl]amino]ethyl]benzoic acid, hydrochloride], the pIC50 was above 7.00.
On to `CN(CCOc1cccc(F)c1)C1(C(=O)NC2(c3ccc(C(=O)O)cc3)CC2)CCOCC1` [Example 32, 4-[1-[[4-[2-(3-Fluorophenoxy)ethyl-methyl-amino]tetrahydropyran-4-carbonyl]amino]cyclopropyl]benzoic acid, hydrochloride], for which the pIC50 is above 7.00.
For `C[C@H](NC(=O)C1(N(C)CCOc2ccccc2)CCOCC1)c1ccc(C(=O)O)cc1` [Example 2, 4-[(1S)-1-[[4-[Methyl(2-phenoxyethyl)amino]tetrahydropyran-4-carbonyl]amino]ethyl]benzoic acid, hydrochloride] the value was above 7.00; for `CCCN(CCOc1ccccc1)C1(C(=O)NC2(c3ccc(C(=O)O)cc3)CC2)CCOCC1` [Example 26, 4-[1-[[4-[Propyl(2-phenoxyethyl)amino]tetrahydropyran-4-carbonyl]amino]cyclopropyl]benzoic acid, hydrochloride], above 6.00; for `Cc1cccc(OCCN(C)C2(C(=O)NC3(c4ccc(C(=O)O)cc4)CC3)CCOCC2)c1` [Example 35, 4-[1-[[4-[2-(3-Methylphenoxy)ethyl-methyl-amino]tetrahydropyran-4-carbonyl]amino]cyclopropyl]benzoic acid, hydrochloride], above 7.00.
For `C[C@H](NC(=O)C1(N2CC[C@@H](OC3CCCCC3)C2)CCOCC1)c1ccc(C(=O)O)cc1` [Example 154, 4-[(1S)-1-[[4-[(3R)-3-(Cyclohexyloxy]pyrrolidin-1-yl]tetrahydropyran-4-carbonyl]amino]ethyl]benzoic acid, hydrochloride] the value was above 7.00; for `C[C@H](NC(=O)C1(c2cccc(OCC3CCCCC3)c2)CCCC1)c1ccc(C(=O)O)cc1` [Example 112, 4-[(1S)-1-[[1-[3-(Cyclohexylmethoxy)phenyl]cyclopentanecarbonyl]amino]ethyl]benzoic acid], above 7.00.
On to `C[C@H](NC(=O)C1(N2CC[C@@H](Oc3cccc(C(F)(F)F)c3)C2)CCOCC1)c1ccc(C#N)cc1` [Example 182, N—((S)-1-(4-Cyanophenyl)ethyl)-4-((R)-3-(3-(trifluoromethyl)phenoxy)pyrrolidin-1-yl)tetrahydro-2H-pyran-4-carboxamide, hydrochloride], for which the negative-log IC50 (pIC50) is above 7.00.
For `Cc1ccc(OCCN(C)C2(C(=O)NC3(c4ccc(C(=O)O)cc4)CC3)CCOCC2)cc1` [Example 37, 4-[1-[[4-[2-(4-Methylphenoxy)ethyl-methyl-amino]tetrahydropyran-4-carbonyl]amino]cyclopropyl]benzoic acid, hydrochloride] the value was above 6.00; for `C[C@H](NC(=O)C1(c2ccc(OCc3cccnc3)cc2)CCOCC1)c1ccc(C(=O)O)cc1` [Example 96, 4-[(1S)-1-[[4-[4-(3-Pyridylmethoxy)phenyl]tetrahydropyran-4-carbonyl]amino]ethyl]benzoic acid], above 6.00.
Under `COc1ccccc1[C@H](C)NC(=O)C1(N2CC[C@@H](Oc3cccc(C(F)(F)F)c3)C2)CCOCC1` [Example 197, N—((S)-1-(2-Methoxyphenyl)ethyl)-4-((R)-3-(3-(trifluoromethyl)phenoxy)pyrrolidin-1-yl)tetrahydro-2H-pyran-4-carboxamide, hydrochloride] stands above 6.00; under `C[C@H](NC(=O)C1(NCCOc2cccc(Cl)c2)CCCCC1)c1ccc(C(=O)O)cc1` [Example 56, 4-[(1S)-1-[[1-[2-(3-Chlorophenoxy)ethylamino]cyclohexanecarbonyl]amino]ethyl]benzoic acid, hydrochloride], above 7.00.

For the origin of these results see patent US12527779B2, “Prostaglandin E2 (PGE2) EP4 receptor antagonists” (Domain Therapeutics, priority 2019, dated 2026).
